Literature values in US20230091009A1, “METHOD FOR PROMOTING GROWTH OF GAS-FERMENTED MICROORGANISMS” (HARBIN INSTITUTE OF TECHNOLOGY, SHENZHEN, priority 2021, published 2023).

Conditions: ambient conditions, even in a supersaturated state

[HH] [hydrogen]
solubility in water: about 0.79 mmol/l
